Source: ChEMBL document CHEMBL5725458, “Histone deacetylase inhibitors and compositions and methods of use thereof” (2018)

Target: Histone deacetylase 4 (Homo sapiens, UniProt P56524)
Experiment: HDAC4 Biochemical: The Class I HDAC activity of Class IIa Histone Deacetylase (HDAC) inhibitors was quantified by measuring the cellular histone deacetylase enzymatic activity using the fluorogenic substrate, Boc-Lys(Ac)-AMC. This was performed according to the procedure in Example 17, using Boc-Lys(Ac)-AMC substrate in place of Boc-Lys(TFA)-AMC.

Chain of Histone deacetylase 4 (P56524 whole entry): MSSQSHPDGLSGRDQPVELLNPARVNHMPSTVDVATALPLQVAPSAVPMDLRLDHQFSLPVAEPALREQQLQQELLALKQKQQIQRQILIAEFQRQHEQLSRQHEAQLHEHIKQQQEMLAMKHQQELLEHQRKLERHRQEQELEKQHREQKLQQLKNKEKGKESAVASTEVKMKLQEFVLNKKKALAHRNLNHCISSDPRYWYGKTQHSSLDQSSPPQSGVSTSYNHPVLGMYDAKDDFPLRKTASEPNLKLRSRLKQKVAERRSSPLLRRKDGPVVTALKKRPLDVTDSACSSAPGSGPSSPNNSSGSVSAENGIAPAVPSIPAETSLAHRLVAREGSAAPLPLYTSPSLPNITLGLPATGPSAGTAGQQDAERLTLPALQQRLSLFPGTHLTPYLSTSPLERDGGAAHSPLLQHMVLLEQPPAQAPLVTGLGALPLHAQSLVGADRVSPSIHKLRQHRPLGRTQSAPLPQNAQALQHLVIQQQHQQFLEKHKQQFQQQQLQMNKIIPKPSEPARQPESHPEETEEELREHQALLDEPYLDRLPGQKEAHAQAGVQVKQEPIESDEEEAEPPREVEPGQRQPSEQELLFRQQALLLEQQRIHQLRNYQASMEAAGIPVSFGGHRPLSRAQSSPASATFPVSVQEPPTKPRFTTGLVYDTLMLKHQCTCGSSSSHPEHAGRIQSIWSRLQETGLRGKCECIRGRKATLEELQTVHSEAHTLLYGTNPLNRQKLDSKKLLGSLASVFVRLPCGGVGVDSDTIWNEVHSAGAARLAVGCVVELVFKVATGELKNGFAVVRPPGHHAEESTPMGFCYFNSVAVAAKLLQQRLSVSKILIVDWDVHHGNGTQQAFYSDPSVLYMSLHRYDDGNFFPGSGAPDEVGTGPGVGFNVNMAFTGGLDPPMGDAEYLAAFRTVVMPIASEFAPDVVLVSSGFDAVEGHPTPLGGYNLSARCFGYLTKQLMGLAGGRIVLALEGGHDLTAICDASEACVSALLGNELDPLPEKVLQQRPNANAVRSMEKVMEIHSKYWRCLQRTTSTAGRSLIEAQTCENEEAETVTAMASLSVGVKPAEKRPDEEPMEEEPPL

- IC50: 330 nM
SMILES: O=C(NC1(CN2CC3CCC(C3)C2)CC1)c1ccc(-c2noc(C(F)(F)F)n2)cc1
